Values joined by “and” are separate entries in the source; they are usually repeats but may differ in a detail not shown here. Equal values may be shown once. Toxic doses and inconclusive results are not listed. How the source made its calls: active means survival T/C of 150% or more; inactive means T/C below 125% in these data.
System: P388 leukemia ip, CD2F1 mice, survival T/C
Experiment: NCI In Vivo Anticancer Drug Screen. Data for tumor model P388 Leukemia (intraperitoneal) in CD2F1 (CDF1) mice
Settings: endpoint: median survival time, higher = longer survival
Method in brief: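 Mice carrying the transplanted tumor received test compound or vehicle. Survival was recorded in each group, and the value is the treated-group measurement divided by that of the vehicle-treated control group.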

Measured: T/C

S=c1nc[nH]c2nc[nH]c12
inactive: dose: 9.38 mg/kg/injection, schedule: Q01DX009 (ip), vehicle: alkali diluted with saline 111 % of control | dose: 18.8 mg/kg/injection, schedule: Q01DX009 (ip), vehicle: alkali diluted with saline 105 % of control | dose: 20.0 mg/kg/injection, schedule: Q01DX005 (ip), vehicle: alkali diluted with saline 110 % of control | dose: 20.0 mg/kg/injection, schedule: Q01DX005 (ip), vehicle: other 108 % of control and 92 % of control | dose: 20.0 mg/kg/injection, schedule: Q01DX009 (ip), vehicle: alkali diluted with saline 95 % of control | dose: 20.0 mg/kg/injection, schedule: Q01DX009 (ip), vehicle: alkali diluted with water 118 % of control | dose: 20.0 mg/kg/injection, schedule: Q04DX003 (ip), vehicle: other 110 % of control | dose: 20.0 mg/kg/injection, schedule: Q04DX003 (iv), vehicle: other 116 % of control | dose: 25.0 mg/kg/injection, schedule: Q01DX005 (ip), vehicle: alkali diluted with saline 105 % of control | dose: 25.0 mg/kg/injection, schedule: Q01DX005 (ip), vehicle: alkali diluted with water 100 % of control | dose: 25.0 mg/kg/injection, schedule: Q01DX009 (ip), vehicle: Klucel (hydroxypropylcellulose) (HPC) 115 % of control | dose: 28.13 mg/kg/injection, schedule: Q04DX003 (ip), vehicle: alkali diluted with saline 105 % of control | dose: 37.5 mg/kg/injection, schedule: Q01DX009 (ip), vehicle: alkali diluted with saline 110 % of control | dose: 37.5 mg/kg/injection, schedule: Q04DX003 (ip), vehicle: Klucel (hydroxypropylcellulose) (HPC) 121 % of control | dose: 40.0 mg/kg/injection, schedule: Q01DX001 (ip), vehicle: other 111 % of control | dose: 40.0 mg/kg/injection, schedule: Q01DX001 (iv), vehicle: other 100 % of control | dose: 40.0 mg/kg/injection, schedule: Q01DX005 (ip), vehicle: alkali diluted with saline 119 % of control | dose: 40.0 mg/kg/injection, schedule: Q01DX005 (ip), vehicle: other 107 % of control and 119 % of control | dose: 40.0 mg/kg/injection, schedule: Q01DX009 (ip), vehicle: alkali diluted with saline 101 % of control and 105 % of control and 97 % of control | dose: 40.0 mg/kg/injection, schedule: Q01DX009 (ip), vehicle: alkali diluted with water 86 % of control | dose: 40.0 mg/kg/injection, schedule: Q04DX003 (ip), vehicle: other 117 % of control | dose: 40.0 mg/kg/injection, schedule: Q04DX003 (iv), vehicle: other 99 % of control | dose: 50.0 mg/kg/injection, schedule: Q01DX005 (ip), vehicle: alkali diluted with saline 113 % of control | dose: 50.0 mg/kg/injection, schedule: Q01DX005 (ip), vehicle: alkali diluted with water 111 % of control | dose: 50.0 mg/kg/injection, schedule: Q01DX005 (ip), vehicle: saline 105 % of control | dose: 50.0 mg/kg/injection, schedule: Q01DX009 (ip), vehicle: Klucel (hydroxypropylcellulose) (HPC) 123 % of control | dose: 50.0 mg/kg/injection, schedule: Q01DX009 (ip), vehicle: alkali diluted with saline 99 % of control and 104 % of control | dose: 56.25 mg/kg/injection, schedule: Q04DX003 (ip), vehicle: alkali diluted with saline 99 % of control | dose: 60.0 mg/kg/injection, schedule: Q01DX009 (ip), vehicle: alkali diluted with saline 102 % of control and 113 % of control | dose: 75.0 mg/kg/injection, schedule: Q01DX009 (ip), vehicle: alkali diluted with saline 117 % of control | dose: 75.0 mg/kg/injection, schedule: Q04DX003 (ip), vehicle: Klucel (hydroxypropylcellulose) (HPC) 117 % of control | dose: 80.0 mg/kg/injection, schedule: Q01DX001 (iv), vehicle: other 103 % of control | dose: 80.0 mg/kg/injection, schedule: Q01DX005 (ip), vehicle: alkali diluted with saline 120 % of control | dose: 80.0 mg/kg/injection, schedule: Q01DX005 (ip), vehicle: other 95 % of control | dose: 80.0 mg/kg/injection, schedule: Q01DX009 (ip), vehicle: alkali diluted with saline 95 % of control | dose: 80.0 mg/kg/injection, schedule: Q04DX003 (iv), vehicle: other 104 % of control | dose: 100.0 mg/kg/injection, schedule: Q01DX005 (ip), vehicle: alkali diluted with saline 105 % of control | dose: 100.0 mg/kg/injection, schedule: Q01DX005 (ip), vehicle: alkali diluted with water 105 % of control | dose: 100.0 mg/kg/injection, schedule: Q01DX005 (ip), vehicle: saline 102 % of control and 108 % of control | dose: 112.5 mg/kg/injection, schedule: Q04DX003 (ip), vehicle: alkali diluted with saline 107 % of control | dose: 150.0 mg/kg/injection, schedule: Q01DX001 (ip), vehicle: alkali diluted with saline 101 % of control and 107 % of control | dose: 160.0 mg/kg/injection, schedule: Q01DX001 (iv), vehicle: other 103 % of control | dose: 160.0 mg/kg/injection, schedule: Q01DX005 (ip), vehicle: other 108 % of control and 112 % of control | dose: 160.0 mg/kg/injection, schedule: Q01DX009 (ip), vehicle: alkali diluted with saline 106 % of control | dose: 200.0 mg/kg/injection, schedule: Q01DX001 (ip), vehicle: alkali diluted with saline 108 % of control and 111 % of control | dose: 200.0 mg/kg/injection, schedule: Q01DX005 (ip), vehicle: alkali diluted with water 86 % of control | dose: 200.0 mg/kg/injection, schedule: Q01DX005 (ip), vehicle: saline 100 % of control and 115 % of control and 124 % of control | dose: 225.0 mg/kg/injection, schedule: Q04DX003 (ip), vehicle: alkali diluted with saline 98 % of control | dose: 250.0 mg/kg/injection, schedule: Q01DX001 (ip), vehicle: alkali diluted with saline 107 % of control | dose: 250.0 mg/kg/injection, schedule: Q01DX001 (ip), vehicle: saline 102 % of control | dose: 300.0 mg/kg/injection, schedule: Q01DX001 (ip), vehicle: alkali diluted with saline 112 % of control | dose: 320.0 mg/kg/injection, schedule: Q01DX001 (ip), vehicle: other 100 % of control | dose: 320.0 mg/kg/injection, schedule: Q01DX001 (iv), vehicle: other 108 % of control | dose: 320.0 mg/kg/injection, schedule: Q04DX003 (iv), vehicle: other 100 % of control | dose: 400.0 mg/kg/injection, schedule: Q01DX005 (ip), vehicle: saline 89 % of control | dose: 400.0 mg/kg/injection, schedule: Q01DX009 (ip), vehicle: Klucel (hydroxypropylcellulose) (HPC) 115 % of control | dose: 500.0 mg/kg/injection, schedule: Q01DX001 (ip), vehicle: saline 104 % of control | dose: 640.0 mg/kg/injection, schedule: Q01DX001 (iv), vehicle: other 105 % of control | dose: 1000.0 mg/kg/injection, schedule: Q01DX001 (ip), vehicle: saline 99 % of control

— PubChem BioAssay AID330 (DTP/NCI, 2004)
